Data: patent US8143249B2 (Gilead Sciences, Inc., priority 2005, dated 2012)

Assay: Oral pharmacokinetics/bioavailability of prodrugs vs parent (compound 1) in rats, plasma LC/MS/MS
Assay type: in vivo, Sprague Dawley rats
Settings: for Cmax: Sprague Dawley
Description: The following studies were conducted in order to compare the pharmacokinetics of the parent A2B adenosine receptor antagonist and its corresponding prodrug. The parent compound chosen was the compound of formula A in which R^1 is n-propyl, R^2 is ethyl, R^3 is hydrogen, and R^4 is 3-trifluoromethylphenyl; that is:
The studies were carried out in Sprague Dawley rats. The test compounds were administered orally by gavage to groups of three rats using a single oral dose of the test compound at 2 and 30 mg/kg. All oral doses were prepared either as a suspension in DMSO/ethanol/PEG300/0.1% N-methyl-D-glucamine or as a suspension in 0.5% methylcellulose in water. Blood samples were obtained serially from each rat at 0, 5, 15, 30 min, and then 1, 1.5, 2, 4, 6, 8, and 24 hrs post-dose.
Concentrations of compound 1 and/or the corresponding prodrug in rat plasma were determined by a HPLC tandem mass spectrometric (LC/MS/MS) method. Briefly, 0.1 mL of plasma sample was treated with 0.5 mL of acetonitrile:methanol (9:1, v/v) mixture containing 25 ng of compound 1 having deuterated ethyl at the 3-position in place of ethyl. (Internal Standard, I.S.) to precipitate the protein. The mixture was filtered through a 96-well filter and filtrate was collected and evaporated to dryness on a 96-well plate evaporator. The residue was then reconstituted with 400 μL 20% methanol and subjected to LC/MS/MS analysis. Quantification of compound 1 was achieved by mass spectrometry using Multiple Reaction Monitoring (MRM) mode, monitoring the transitions at m/z 447.1>159.1 for compound 1 and 452.1>159.1 for I.S. The quantification limit of the assay was 0.38 ng/mL for the analysis of the oral dose samples and 10 ng/mL during the analysis of the intravenous dose samples using 0.1 mL of plasma.
Non-compartmental pharmacokinetic parameters were determined using a commercial program WinNonLin Professional, Version 4.1 (Pharsight, Mountain View, Calif.). Plasma concentration at below level of detection was assumed to be zero for the calculation of means and pharmacokinetic parameters.
For oral administration, the maximum concentration (Cmax) and time to reach Cmax (Tmax), AUC(0-1), AUC(0-8) and bioavailability (% F) were determined. Oral bioavailability was determined from the ratio of dose-adjusted AUC(0-8) of the respective oral dose and the mean AUC(0-8) values of the 0.1 and 0.5 mg/kg intravenous doses.
The results are presented below in tabular form. The table provides results obtained by using a suspension of the test compound in a suspension in DMSO/ethanol/PEG300/0.1% N-methyl-D-glucamine in rats.

[1] = unchanged prodrug in rat plasma after single oral gavage dose, suspension in DMSO/ethanol/PEG300/0.1% N-methyl-D-glucamine

SMILES | Cmax [1] [ng/mL] | Prodrug Mean Dose Adjusted AUC [1] | plasma levels of parent compound 1 following oral dosing, compared with oral dosing of the parent itself (rats, oral, result in words) | Prodrug Mean Cmax [1] [ng/mL] | prodrug seen in plasma unmetabolized (rats, oral, result in words)
CCCn1c(=O)c2c(nc(-c3cnn(Cc4cccc(C(F)(F)F)c4)c3)n2COC(=O)NCCN(C)C)n(CC)c1=O [Compound 10] | < 5 | Not detectable | – | – | detected in the plasma unmetabolized
CCCn1c(=O)c2c(nc(-c3cnn(Cc4cccc(C(F)(F)F)c4)c3)n2COC(=O)N(C)CCN(C)C)n(CC)c1=O [Compound 5] | – | Not detectable | approximately the same | <5 | –
CCCn1c(=O)c2c(nc(-c3cnn(Cc4cccc(C(F)(F)F)c4)c3)n2COP(=O)(O)O)n(CC)c1=O [Compound 6, [3-ethyl-2,6-dioxo-1-propyl-8-(1-{[3-(trifluoromethyl)phenyl]methyl}-pyrazol-4-yl)(1,3,7-trihydropurin-7-yl)]methyl dihydrogen phosphate] | < 5 | Not detectable | – | – | detected in the plasma unmetabolized

More lines, main results first:

Cmax [1] [ng/mL] | Prodrug Mean Dose Adjusted AUC [1] | plasma levels of parent compound 1 following oral dosing, compared with oral dosing of the parent itself (rats, oral, result in words) | Prodrug Mean Cmax [1] [ng/mL] | SMILES | prodrug seen in plasma unmetabolized (rats, oral, result in words)
< 5 | Not detectable | – | – | CCCn1c(=O)c2c(nc(-c3cnn(Cc4cccc(C(F)(F)F)c4)c3)n2COC(C)=O)n(CC)c1=O [Compound 3, [3-ethyl-2,6-dioxo-1-propyl-8-(1-{[3-(trifluoromethyl)phenyl]methyl}pyrazol-4-yl)-1,3,7-trihydropurin-7-yl]methyl acetate] | –
< 5 | Not detectable | – | – | CCCC(=O)OCn1c(-c2cnn(Cc3cccc(C(F)(F)F)c3)c2)nc2c1c(=O)n(CCC)c(=O)n2CC [Compound 2, [3-ethyl-2,6-dioxo-1-propyl-8-(1-{[3-(trifluoromethyl)phenyl]methyl}pyrazol-4-yl)-1,3,7-trihydropurin-7-yl]methyl butanoate] | –
< 5 | Not detectable | – | – | CCCn1c(=O)c2c(nc(-c3cnn(Cc4cccc(C(F)(F)F)c4)c3)n2COC(=O)C(C)(C)C)n(CC)c1=O [Compound 4, [3-ethyl-2,6-dioxo-1-propyl-8-(1-{[3-(trifluoromethyl)phenyl]methyl}pyrazol-4-yl)-1,3,7-trihydropurin-7-yl]methyl-2,2-dimethylpropanoate] | –
